For the assay, the system named is C57bl/6 mice. It is filed as in vivo, mouse. The following applies: n=3; for CNS accumulation of NA-HRP (result in words): biotin-peptide:NA-HRP complex, IP, 24 hours post-injection.

Bridges are numbered along the chain shown (N, C = ends). Where no end group is shown, it is not given here.

Regarding “SACHQSQSRMCGGG (disulfide 3-11 (inferred)) [TACL10]”, the “CNS accumulation of NA-HRP (result in words)” value is reported as “trended toward significant CNS accumulation”.
“SACPLSKGKLCGGG (disulfide 3-11 (inferred)) [TACL08]”: the “NA-delivery to the forebrain (result in words)” value (peptide-neutravidin-HRP, 10 μg per mouse IP, 24 hours) is listed as “increased NA-delivery to the forebrain when compared against controls”.
As for “SACSQKNFTHCGGG (disulfide 3-11 (inferred)) [TACL06]”, the “CNS accumulation of NA-HRP (result in words)” value is listed as “trended toward significant CNS accumulation”.
